According to patent US20080214455A1, “Novel Chemical Compounds” (SMITHKLINE BEECHAM CORPORATION, priority 2005, published 2008):

Target: T1, hYAK3 (Homo sapiens, UniProt O43781)
T1 construct: GST (N); His6 (C); made in house; host or cells: baculovirus expression system in Sf9 cells
T1 sequence (O43781 142-526): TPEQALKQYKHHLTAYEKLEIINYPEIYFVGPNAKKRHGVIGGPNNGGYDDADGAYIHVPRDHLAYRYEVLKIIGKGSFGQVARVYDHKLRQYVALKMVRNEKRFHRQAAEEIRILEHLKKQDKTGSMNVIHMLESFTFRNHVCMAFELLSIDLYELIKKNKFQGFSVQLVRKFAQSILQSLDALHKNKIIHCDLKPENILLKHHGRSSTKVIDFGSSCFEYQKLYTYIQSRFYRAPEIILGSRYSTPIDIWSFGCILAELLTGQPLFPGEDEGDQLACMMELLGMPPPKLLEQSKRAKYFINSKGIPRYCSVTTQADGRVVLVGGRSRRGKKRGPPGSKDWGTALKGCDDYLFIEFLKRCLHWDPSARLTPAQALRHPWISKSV
Test: YAK3 Scintillation Proximity Assay using Ser164 of myelin basic protein as the phosphoacceptor (kinase assay of purified hYAK3)
Assay type: biochemical
Details: purified GST-hYak3-His6; 1 μM ATP; 4 μM Ser164 peptide; 2 hours at room temperature
Protocol: Substrate phosphorylation assays were carried out as follows:
YAK3 Scintillation Proximity Assays Using Ser164 of Myelin Basic Protein as the Phosphoacceptor
The source of Ser164 substrate peptide The biotinylated Ser164, S164A peptide(LGGRDSRAGS*PMARRKK-ahx-Biotin-Amide), sequence derived from the C-terminus of bovine myelin basic protein (MBP) with Ser162 substituted as Ala 162, was purchased from California Peptide Research Inc. (Napa, Calif.), and its purity was determined by HPLC. Phosphorylation occurs at position 164 (marked S* above). The calculated molecular mass of the peptide is 2166 dalton. Solid sample was dissolved at 10 mM in DMSO, aliquoted, and stored at −20 C until use. […]
Kinase assay of purified hYAK3: Assays were performed in 96 well (Costar, Catalog No.3789) or 384 well plates (Costar, Catalog No.3705). […] Compounds, titrated in DMSO, were evaluated at concentrations ranging from 50 μM to 0.2 nM. […]
The data for compound dose responses were plotted as % Inhibition, calculated with the data reduction formula 100*(1-[(U1-C2)/(C1-C2)]), versus concentration of compound, where U is the unknown value, C1 is the average control value obtained for DMSO, and C2 is the average control value obtained for 0.05M EDTA. […] The results for each compound were recorded as pIC50 calculated as follows: pIC50=−Log 10(K).

Structure (SMILES): O=C1N=C(Nc2c(Cl)cccc2Cl)S/C1=C\c1ccc2ncc(N3CCOCC3)nc2c1 [Example 1, (5Z)-2-[(2,6-Dichlorophenyl)amino]-5-{[3-(4-morpholinyl)-6-quinoxalinyl]methylidene}-1,3-thiazol-4(5H)-one]
- IC50: 1.26 nM
